The EC50 is the midpoint of the concentration-response curve. Read a high EC50 as lower potency in that assay. In general, IC50 refers to the concentration that gives 50% inhibition.

The text below walks through data of ChEMBL document CHEMBL1145169, “Discovery of substituted maleimides as liver X receptor agonists and determination of a ligand-bound crystal structure” (J Med Chem, 2005).

Values joined by “and” are separate entries in the source; they are usually repeats but may differ in a detail not shown here. Equal entries are not always repeated. Where only a bound is given, the exact number is not on record here.

Assay [1] deals with T1, Oxysterols receptor LXR-alpha (Homo sapiens, UniProt Q13133).
T1 sequence (Q13133 whole entry): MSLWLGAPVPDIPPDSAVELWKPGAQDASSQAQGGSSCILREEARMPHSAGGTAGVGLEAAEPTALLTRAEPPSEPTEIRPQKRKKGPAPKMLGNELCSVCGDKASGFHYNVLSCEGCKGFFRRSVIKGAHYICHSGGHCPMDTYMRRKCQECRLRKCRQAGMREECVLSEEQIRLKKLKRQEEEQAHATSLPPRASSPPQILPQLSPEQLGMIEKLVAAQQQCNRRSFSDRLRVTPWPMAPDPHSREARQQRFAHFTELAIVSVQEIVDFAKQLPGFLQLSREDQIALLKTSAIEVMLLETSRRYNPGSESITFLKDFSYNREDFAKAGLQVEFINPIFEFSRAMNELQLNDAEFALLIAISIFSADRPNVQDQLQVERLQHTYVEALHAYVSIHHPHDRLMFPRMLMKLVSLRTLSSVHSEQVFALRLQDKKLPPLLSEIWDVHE
As to the kind of experiment: Effective concentration for Steroid receptor coactivator-1 (SRC1) recruitment to human LXRalpha (Liver X receptor).

Assay [2] deals with T2, Oxysterols receptor LXR-beta (Homo sapiens, UniProt P55055).
T2 sequence (P55055 whole entry): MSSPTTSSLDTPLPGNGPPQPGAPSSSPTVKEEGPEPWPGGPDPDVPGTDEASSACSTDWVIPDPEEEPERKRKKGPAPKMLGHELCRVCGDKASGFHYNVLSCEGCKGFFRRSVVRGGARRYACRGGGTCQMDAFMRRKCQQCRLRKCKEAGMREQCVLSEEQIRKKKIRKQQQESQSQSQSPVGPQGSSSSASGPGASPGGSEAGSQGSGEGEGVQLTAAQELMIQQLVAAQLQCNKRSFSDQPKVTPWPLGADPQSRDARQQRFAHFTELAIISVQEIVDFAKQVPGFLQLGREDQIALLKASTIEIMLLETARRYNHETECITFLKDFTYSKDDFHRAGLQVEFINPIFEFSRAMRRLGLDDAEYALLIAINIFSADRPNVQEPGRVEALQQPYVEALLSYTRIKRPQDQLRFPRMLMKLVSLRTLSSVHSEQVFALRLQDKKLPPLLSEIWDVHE
As to the kind of experiment: Effective concentration for Steroid receptor coactivator-1 (SRC1) recruitment to human LXRbeta (Liver X receptor).

The target of assay [3] is Glycogen synthase kinase-3 beta (Homo sapiens, UniProt P49841). Description: Inhibition of human GSK3-beta.
Assay [4] in a line: Effective concentration in human ATP binding cassette transporter A1 (ABCA1) transcriptional activation assay.
Assay [5] has as its target T3, Oxysterols receptor LXR-alpha (Homo sapiens) (UniProt Q13133).
T3 sequence (whole entry): T1 sequence (Q13133 whole entry)
Description: Relative efficacy for Steroid receptor coactivator-1 (SRC1) recruitment to human LXRalpha compared to GW-3965

The target in assay [6] is T4, Oxysterols receptor LXR-beta (Homo sapiens) (UniProt P55055).
T4 sequence (whole entry): T2 sequence (P55055 whole entry)
Description: Relative efficacy in Steroid receptor coactivator-1 (SRC1) recruitment to human LXRbeta compared to GW-3965.

Glycogen synthase kinase-3 beta, sequence (P49841 whole entry): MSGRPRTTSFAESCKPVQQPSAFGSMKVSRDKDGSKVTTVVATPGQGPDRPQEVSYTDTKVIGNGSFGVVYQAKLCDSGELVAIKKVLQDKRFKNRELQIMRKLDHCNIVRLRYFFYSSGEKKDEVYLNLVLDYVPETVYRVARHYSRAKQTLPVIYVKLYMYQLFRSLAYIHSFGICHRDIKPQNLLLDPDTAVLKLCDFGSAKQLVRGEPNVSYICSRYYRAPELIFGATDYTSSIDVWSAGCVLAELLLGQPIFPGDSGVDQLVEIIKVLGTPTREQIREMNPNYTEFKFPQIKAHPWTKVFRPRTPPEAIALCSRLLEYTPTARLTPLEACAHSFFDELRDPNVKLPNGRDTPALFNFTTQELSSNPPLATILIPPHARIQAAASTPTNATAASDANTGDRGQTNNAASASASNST

As for `O=C1C(Nc2ccccc2)=C(c2ccccc2)C(=O)N1Cc1ccccc1`, the concentration giving a half-maximal response (EC50) in assay [1] was determined as 100 nM; in assay [2], 70 nM; in assay [4], 1320 nM. The same compound gave a concentration for half-maximal inhibition (IC50) in assay [3] of more than 5 µM. Besides, the RE in the assay filed under Homo sapiens is 0.6; in assay [5] it was 0.3 and 0.5.

Turning to `CN1C(=O)C(Nc2ccccc2)=C(c2ccccc2)C1=O`, the EC50 in assay [1] was determined as 1590 nM; in assay [2] it was 850 nM; in assay [4], 4650 nM. In assay [3], this compound registered a 50% inhibitory concentration (IC50) of more than 5 µM. Also, the RE in the assay listed under Homo sapiens was 0.3; in assay [5] it was 0.5 and 0.6.

Consider `O=C1C(Nc2ccc(Cl)cc2)=C(c2ccccc2)C(=O)N1Cc1ccccc1`, for which the figures for the EC50 in assay [1], in assay [2] and in assay [4] were 130 nM, 110 nM and 1420 nM, respectively. Besides, the IC50 in assay [3] is more than 5 µM. Further, the RE in the assay filed under Homo sapiens is 0.4; in assay [5] it was 0.3 and 0.4.

With `COc1ccc(NC2=C(c3ccccc3)C(=O)N(c3ccccc3)C2=O)cc1`, the EC50 in assay [1] came out at 275 nM; in assay [2], 260 nM; in assay [4], 1120 nM. The compound also registered a half-maximal inhibitory concentration (IC50) in assay [3] of more than 5 µM. The RE in the assay filed under Homo sapiens is 0.7; in assay [5], 0.7 and 0.6.

As to `CCN1C(=O)C(Nc2ccc(OC)cc2)=C(c2ccccc2)C1=O`, the concentration for a half-maximal effect (EC50) is 300 nM in assay [1], 200 nM in assay [2] and 10200 nM in assay [4]. Further, the IC50 in assay [3] is more than 5 µM. The RE is 0.4 in the assay listed under Homo sapiens; 1.1 and 0.9 in assay [5].

For `CCN1C(=O)C(Nc2ccccc2)=C(c2ccccc2)C1=O`, the EC50 in assay [1] turned out to be 890 nM; in assay [2], 560 nM; in assay [4], 1790 nM. Further, the IC50 in assay [3] was more than 5 µM. In addition, the RE in the assay filed under Homo sapiens was 0.5; in assay [5] it was 0.7.

In the case of `O=C(O)Cc1cccc(OCCCN(Cc2cccc(C(F)(F)F)c2Cl)CC(c2ccccc2)c2ccccc2)c1`, the EC50 turned out to be 80 nM in assay [1] and 170 nM in assay [4]. The RE (in assay [6]; in the assay filed under Homo sapiens; in assay [5]) was 1 each time.

In assay [4], `O=S(=O)(c1ccccc1)N(CC(F)(F)F)c1ccc(C(O)(C(F)(F)F)C(F)(F)F)cc1` [T091317] had a half-maximal effective concentration (EC50) of 70 nM. Moreover, the RE in the assay listed under Homo sapiens is 1; in assay [5], 1.1 and 0.8.

On to `CCN1C(=O)C(Nc2ccc(Cl)cc2)=C(c2ccccc2)C1=O`, for which the EC50 stood at 725 nM in assay [1], 575 nM in assay [2] and 4550 nM in assay [4]. This compound displayed an IC50 in assay [3] of more than 5 µM. Also, the RE was 0.4 in the assay filed under Homo sapiens; 0.5 and 0.6 in assay [5].

For the compound `COc1ccc(NC2=C(c3ccccc3)C(=O)N(Cc3ccccc3)C2=O)cc1`, the EC50 turned out to be 50 nM in assay [1], 40 nM in assay [2] and 80 nM in assay [4]. In assay [3], this compound showed a concentration for half-maximal inhibition (IC50) of more than 5 µM. Besides, the RE (in the assay filed under Homo sapiens; in assay [5]) was 0.9 in each case.

Regarding `COc1ccc(NC2=C(c3ccccc3)C(=O)N(C)C2=O)cc1`, the concentration for a half-maximal effect (EC50) in assay [1] is 575 nM; in assay [2], 300 nM; in assay [4] it was 840 nM. In assay [3], the IC50 was more than 2 µM. Moreover, the RE was 1.4 in the assay filed under Homo sapiens and 0.9 in assay [5].
